Values joined by “and” are separate entries in the source; they are usually repeats but may differ in a detail not shown here. Identical values can stand only once. Like-named read-outs stand apart in the source and are kept apart here.
Tests used:
[1] = tested on: SARS-CoV-2 WA1/2020 (lineage A); test: microbe, parasite or virus in culture; format: cell-based; conditions: for Virus yield reduction: vehicle = 0
[2] = tested on: SARS-CoV-2 CA/2020 (α, lineage B.1.1.7); test: microbe, parasite or virus in culture; format: cell-based
[3] = tested on: SARS-CoV-2 SA/2020 (β, lineage B.1.351); test: microbe, parasite or virus in culture; format: cell-based; conditions: Severe acute respiratory syndrome coronavirus 2, Vero C1008; SA/2020, VeroE6, mean n=3
[4] = tested on: SARS-CoV-2 BZ/2021 (γ, lineage P.1); test: microbe, parasite or virus in culture; format: cell-based; conditions: Severe acute respiratory syndrome coronavirus 2, Vero C1008; BZ/2021, VeroE6, mean n=3
[5] = tested on: SARS-CoV-2-Nluc (WA1/2020-nano luciferase); test: microbe, parasite or virus in culture; format: cell-based; conditions: for A549-hACE2 SARS-CoV-2 Nluc (EC50 determination), normalized signal: replicate values of the experiments
[6] = tested on: SARS-CoV-2 gamma isolate (BZ/2021, lineage P.1); test: microbe, parasite or virus in culture; format: cell-based; conditions: Severe acute respiratory syndrome coronavirus 2
[7] = tested on: well-differentiated primary human airway epithelium cultures; format: cell-based
[8] = design: method as in Mackman et al 2021 (JMC 2021, 64(8), 5001-5017); conditions: rats, ref Mackman et al 2021 (JMC 2021, 64(8), 5001-5017); cited from earlier work
[9] = design: method as in Mackman et al 2021 (JMC 2021, 64(8), 5001-5017); conditions: cynomolgus macaques, ref Mackman et al 2021 (JMC 2021, 64(8), 5001-5017); cited from earlier work
[10] = cited from earlier work
[11] = in vitro; conditions: human
[12] = in vitro; conditions: human, % cell viability, HEp-2, 33.333 µM, 72 h
[13] = in vitro; conditions: human; remark: listed apart in the source
[14] = Cytotoxicity assay (PrestoBlue), HEp-2; conditions: human, HEp-2 cells
[15] = Cytotoxicity assay (PrestoBlue), HCT-8; conditions: human, HCT-8 cells
[16] = Cytotoxicity assay (PrestoBlue), VeroE6; conditions: African green monkey, VeroE6 cells
[17] = tested on: VeroE6 cells; test: Cytotoxicity assay (PrestoBlue), VeroE6; conditions: 72 h
[18] = Cytotoxicity assay (PrestoBlue), BHK-21; conditions: hamster, BHK-21 cells
[19] = Cytotoxicity assay (PrestoBlue), “F2” HAE; conditions: human
[20] = Cytotoxicity assay (PrestoBlue), “F3” HAE; conditions: human
[21] = tested on: “F3” primary HAE cells; test: Cytotoxicity assay (PrestoBlue), “F3” HAE; conditions: 72 h; for % cell viability: F3 HAE
[22] = Cytotoxicity assay (PrestoBlue), “M2” HAE; conditions: human, % cell viability, M2 HAE, 72 h
[23] = Cytotoxicity assay (PrestoBlue), “M6” HAE; conditions: human
[24] = tested on: “M6” primary HAE cells; test: Cytotoxicity assay (PrestoBlue), “M6” HAE; conditions: M6 HAE, 72 h
[25] = Single-dose plasma pharmacokinetics in ferrets; conditions: ferret; for plasma concentration of GS-621763: GS-621763 PO 30 mg/kg, 30 mg/kg

Compound: CC(C)C(=O)OCC1OC(C#N)(c2ccc3c(N)ncnn23)C(OC(=O)C(C)C)C1OC(=O)C(C)C (centres unmarked) [GS-621763]
- EC50 ([1]; Severe acute respiratory syndrome coronavirus 2, Vero C1008, WA1/2020, VeroE6, mean n=3): 0.73 µM
- Virus yield reduction ([1]; WA1/2020, VeroE6, 0.617284 µM): -0.1154
- Virus yield reduction ([1]; WA1/2020, VeroE6, 1.85185 µM): -1.903
- reduction in titer in vitro (to the limit of detection) [2]: ~ 1 log
- EC50 ([2]; Severe acute respiratory syndrome coronavirus 2, Vero C1008, CA/2020, VeroE6, mean n=3): 0.21 µM
- EC50 [3]: 0.11 µM
- EC50 [4]: 0.22 µM
- A549-hACE2 SARS-CoV-2 Nluc (EC50 determination), normalized signal ([5]; Conc 0.023 µM): 100.31 and 91.27 and 105.35 and 111.17 and 106.25 and 121.34 and 128.97 and 56.85
- A549-hACE2 SARS-CoV-2 Nluc (EC50 determination), normalized signal ([5]; Conc 0.069 µM): 81.07 and 111.32 and 107.14 and 109.98 and 64.03 and 99.75 and 127.29 and 97.36
- A549-hACE2 SARS-CoV-2 Nluc (EC50 determination), normalized signal ([5]; Conc 0.206 µM): 99.03 and 101.58 and 96.21 and 106.69 and 74.78 and 94.61 and 130.86 and 135.24
- A549-hACE2 SARS-CoV-2 Nluc (EC50 determination), normalized signal ([5]; Conc 0.617 µM): 93.09 and 77.54 and 84.50 and 82.94 and 7.92 and 26.38 and 11.95 and 19.80
- A549-hACE2 SARS-CoV-2 Nluc (EC50 determination), normalized signal ([5]; Conc 1.852 µM): 11.60 and 8.15 and 9.31 and 12.89 and 0.89 and 0.94 and 1.04 and 0.76
- A549-hACE2 SARS-CoV-2 Nluc (EC50 determination), normalized signal ([5]; Conc 5.556 µM): 0.61 and 1.05 and 0.64 and 0.93 and 0.44 (2×) and 0.49 and 0.36
- A549-hACE2 SARS-CoV-2 Nluc (EC50 determination), normalized signal ([5]; Conc 16.667 µM): 0.46 and 0.65 and 0.58 and 0.40 and 0.32 (2×) and 0.31 and 0.28
- A549-hACE2 SARS-CoV-2 Nluc (EC50 determination), normalized signal ([5]; Conc 50.000 µM): 0.15 (3×) and 0.14 and 0.29 (2×) and 0.24 and 0.26
- EC50 ([5]; Severe acute respiratory syndrome coronavirus 2, WA1/2020-nano luciferase, A549-ACE2, mean ± SD): 0.72 µM
- EC50 [6]: 3.01 µM
- basolateral drug concentration at which epithelium integrity (TEER) was fully preserved [7]: ≥ 3 µM
- oral F [8]: 57%
- oral F [9]: 28%
- increase of oral F compared to GS-441524 ([10]; rats and cynomolgus macaques, ref Mackman et al 2021): greater than 5 fold
- oral bioavailability (in words) ([10]; two relevant animal species including non-human primates): high oral bioavailability
- CC50 at 48 h [11]: > 47 µM
- viability at 72 h, 33.333 µM [12]: 112%
- viability at 72 h, 0.046 µM ([13]; female, % cell viability): 84%
- viability at 72 h, 3.704 µM ([13]; female, % cell viability): 120%
- viability at 72 h, […] ([13]; female, % cell viability): 95%
- viability at […] ([13]; female, % cell viability): 101%
- viability at 1.235 µM ([13]; female, % cell viability, DF2 HAE, 1.235 µM, 72 h): 103%
- viability at 3.704 µM ([13]; female, % cell viability, DF2 HAE, 3.704 µM, 72 h): 116%
- viability at 33.333 µM ([13]; female, % cell viability, DF2 HAE, 33.333 µM, 72 h): 112%
- CC50 at 72 h [13]: 86 µM
- viability at 72 h, 100 µM ([13]; % cell viability): 4%
- viability at 72 h, 0.046 µM ([14]; % cell viability, HEp-2, 0.046 µM, 72 h): 53%
- viability at 72 h, 1.235 µM ([14]; % cell viability, HEp-2, 1.235 µM, 72 h): 95%
- viability at 72 h, 3.704 µM ([14]; % cell viability, HEp-2, 3.704 µM, 72 h): 104%
- viability at 72 h, 33.333 µM ([14]; % cell viability, HEp-2, 33.333 µM, 72 h): 111%
- CC50 at 72 h ([14]; CC50, HEp-2, 72 h): 79.4 µM
- viability at 72 h, 0.046 µM ([15]; % cell viability, HCT-8, 0.046 µM, 72 h): 78%
- viability at 72 h, 3.704 µM ([15]; % cell viability, HCT-8, 3.704 µM, 72 h): 104%
- viability at 72 h, 33.333 µM ([15]; % cell viability, HCT-8, 33.333 µM, 72 h): 99%
- viability at 72 h, 100 µM ([15]; % cell viability, HCT-8, 100 µM, 72 h): 2%
- CC50 at 72 h ([15]; CC50, HCT-8, 72 h): 74.6 µM
- CC50 at 72 h [16]: > 100 µM
- viability at 72 h, 0.046 µM ([16]; % cell viability, VeroE6, 0.046 µM, 72 h): 62%
- viability at 72 h, 1.235 µM ([16]; % cell viability, VeroE6, 1.235 µM, 72 h): 90%
- viability at 72 h, 3.704 µM ([16]; % cell viability, VeroE6, 3.704 µM, 72 h): 95%
- viability at 72 h, 33.333 µM ([16]; % cell viability, VeroE6, 33.333 µM, 72 h): 105%
- % cell viability ([17]; VeroE6, 0.046 µM, 0.046 µM): 61% and 56%
- % cell viability ([17]; VeroE6, 1.235 µM, 1.235 µM): 82%
- % cell viability ([17]; VeroE6, 3.704 µM, 3.704 µM): 97%
- % cell viability ([17]; VeroE6, 33.333 µM, 33.333 µM): 103%
- % cell viability ([17]; VeroE6, 100 µM, 100 µM): -4% and -6% and -7%
- CC50 at 72 h [18]: > 100 µM
- viability at 72 h, 0.046 µM ([18]; % cell viability, BHK-21, 0.046 µM, 72 h): 76%
- viability at 72 h, 1.235 µM ([18]; % cell viability, BHK-21, 1.235 µM, 72 h): 90%
- viability at 72 h, 3.704 µM ([18]; % cell viability, BHK-21, 3.704 µM, 72 h): 90%
- viability at 72 h, 33.333 µM ([18]; % cell viability, BHK-21, 33.333 µM, 72 h): 91%
- viability at 72 h, 100 µM ([18]; % cell viability, BHK-21, 100 µM, 72 h): 85%
- viability at 72 h, 1.235 µM ([19]; female, % cell viability, F2 HAE, 1.235 µM): 100%
- viability at 72 h, 3.704 µM ([19]; female, % cell viability, F2 HAE, 3.704 µM): 117%
- viability at 72 h, 33.333 µM ([19]; female, % cell viability, F2 HAE, 33.333 µM): 82%
- viability at 72 h, 0.046 µM ([19]; female, “F2” primary human airway epithelial (HAE) cells, % cell viability, F2 HAE, 0.046 µM): 86%
- viability at 72 h, 100 µM ([19]; % cell viability, F2 HAE, 100 µM): 1%
- CC50 at 72 h ([19]; CC50, “F2” HAE): 43.8 µM
- viability at 72 h, 1.235 µM ([20]; female, % cell viability, F3 HAE, 1.235 µM): 121%
- viability at 72 h, 3.704 µM ([20]; female, % cell viability, F3 HAE, 3.704 µM): 111%
- viability at 72 h, 33.333 µM ([20]; female, % cell viability, F3 HAE, 33.333 µM): 81%
- viability at 72 h, 0.046 µM ([20]; female, “F3” primary human airway epithelial (HAE) cells, % cell viability, F3 HAE, 0.046 µM): 83%
- viability at 72 h, 100 µM ([20]; % cell viability, F3 HAE, 100 µM): 1%
- CC50 at 72 h ([20]; CC50, “F3” HAE): 43.8 µM
- % cell viability ([21]; 0.046 µM): 79%
- % cell viability ([21]; 3.704 µM): 115%
- % cell viability ([21]; 33.333 µM): 86%
- CC50 ([21]; “F3” HAE): 43.8 µM
- viability at 72 h, 100 µM ([22]; 100 µM): 0%
- viability at 72 h, 1.235 µM ([22]; male, 1.235 µM): 107%
- viability at 72 h, 3.704 µM ([22]; male, 3.704 µM): 117%
- viability at 72 h, 33.333 µM ([22]; male, 33.333 µM): 89%
- CC50 at 72 h [23]: 92.3 µM
- viability at 72 h, 100 µM ([23]; % cell viability, M6 HAE, 100 µM, 72 h): 42%
- viability at 72 h, 1.235 µM ([23]; male, % cell viability, M6 HAE, 1.235 µM, 72 h): 97%
- viability at 72 h, 33.333 µM ([23]; male, % cell viability, M6 HAE, 33.333 µM, 72 h): 94%
- % cell viability ([24]; 1.235 µM): 96%
- % cell viability ([24]; 3.704 µM): 70% and 86%
- % cell viability ([24]; 33.333 µM): 99%
- % cell viability ([24]; 100 µM): 46% and 45%
- oral bioavailability (in words) [25]: excellent oral bioavailability
- plasma concentration of GS-621763 ([25]; 0.25 h): 9.27 and 11.5 and 13.7
- plasma concentration of GS-621763 ([25]; 1 h): 5.98 and 3.18 and 4.36
- plasma GS-621763 (intact prodrug) transiently observed ([25]; GS-621763 p.o. 30 mg/kg, first two hours): approximately 10 nM
- GS-441524 in blood relative to intact prodrug ([25]; after oral administration of GS-621763): more than three orders of magnitude higher
